Experimental data taken from US6649797B2, “Compounds and methods of use to treat infectious diseases” (The Picower Institute for Medical Research, priority 1996, dated 2003).

Assays:
[1] = molecular target: T1, karyopherin α / purified recombinant MA (Human immunodeficiency virus type 1 group M subtype B, UniProt P04591); assay: Binding of karyopherin α to purified recombinant MA; assay type: biochemical, HIV-1
T1 construct: or to purified recombinant MA

HIV-1 = assay: Reverse transcription of HIV-1 in infected cells; assay type: cell-based
HIV-1ADA [2] = assay: HIV-1ADA production in mitogen-stimulated peripheral blood leukocytes (FIG. 3); assay type: cell-based
Description: FIG. 3. The effect of various concentrations of Compound No. 2 on RT activity in the supernatant of HIV-1-infected mitogen-stimulated peripheral blood leukocytes at infected at 10 and 1.0 ng p24/[…], FIGS. 3A and 3B, respectively.
PBMCs were purified by Ficoll-Hypaque centrifugation and activated by 10 μg/ml PHA-P (Sigma) and 20 U/ml recombinant human IL-2 (rhIL-2) in RPMI 1640 supplemented with 10% FBS (HyClone). After 24 h incubation, cells were washed and inoculated with HIV-1ADA in RPMI 1640 supplemented with 10% FBS. After a 2 h adsorption, free virus was washed away and cells were cultured in RPMI 1640 supplemented with 10% FBS and 20 U/ml rhIL-2.
For the reverse transcriptase (RT) assay, 10 μl of culture supernatant was added to 40 μl of reaction mixture (final composition was 50 mM Tris-HCl, pH 7.8; 20 MM KCl; 5 MM MgCl2; 1 mM DTT; 0.1% Triton X-100; 0.2 OD/ml polyA; 0.2 OD/ml oligo(dT)12-18; and 40 μCi/ml ^3H-dTTP (76 Ci/mmol, DuPont) and incubated 2 hr at 37° C. 5 μl of the reaction mixture was then spotted onto the DE 81 (Whatman) paper. Paper was air dried and washed 5 times with 5% Na2HPO4, followed by rinsing with distilled water. After air drying, paper was put on a Flexi Filter plate (Packard), covered with scintillation fluid and counted in a Top Count Microplate Counter (Packard). Results are expressed as counts per minute in 1 ml of supernatant (cpm/ml).

HIV-1ADA [3] = assay: Nuclear importation of HIV-1 DNA in monocytes (2-LTR circle PCR, Translocation Index); assay type: cell-based; conditions: 100 nM, 48 and 96 hours post infection
Excerpt: The effects of Compound No. 2 on the nuclear importation of HIV-1 preintegration complexes can be directly measured by detecting the presence of circularized duplex HIV-1 genomic DNA. These duplex circles can be readily detected by PCR amplification using primers which span the junction of the circularized HIV-1 genome. Bukrinsky, M. I., et al., 1992, Proc.Natl.Acad.Sci. 89:6580-84.
Briefly, the efficiency of nuclear translocation was estimated by the ratio between the 2-LTR- and pol-specific PCR products, which reflects the portion of 2-LTR circle DNA molecules as a fraction of the entire pool of intracellular HIV-1 DNA. Viral 2-LTR circle DNA is formed exclusively within the nucleus of infected cells and thus is a convenient marker of successful nuclear translocation. […]
PCR analysis of HIV-1 DNA: Total DNA was extracted from HIV-1-infected cells using the IsoQuick extraction kit (Microprobe Corp., Garden Grove, Calif.). DNA was then analyzed by PCR using primer pairs that amplify the following sequences: a fragment of HIV-1 (LTR/gag) that is the last one to be synthesized during reverse transcription and therefore represents the pool of full-length viral DNA molecules; a fragment of polymerase gene (pol); a 2-LTR junction region found only in HIV-1 2-LTR circle DNA molecules; or a fragment of the cellular a-tubulin gene. […]

Compound | inhibition of binding of karyopherin α to purified recombinant MA [1] | inhibition of reverse transcription of HIV-1 in infected cells (HIV-1) | reduction in viral output (HIV-1ADA [2]; 1 and 10 μM, lower MOI, 1 ng p24/10^6 cells) [fold] | anti-viral effect in cultures of replicating cells (HIV-1ADA [2]; infected at the multiplicity of infection used to infect monocytes) | effect on viral production (HIV-1ADA [2]; up to 10 μM, higher MOI, 10 ng p24/10^6 cells) | Translocation Index (HIV-1ADA [3]; relative to drug free control) | inhibition at 0.1 µM (HIV-1ADA [3]; Human immunodeficiency virus 1, Monocyte) [%]
CC(=O)c1cc(Nc2cc(C)[n+](C)c(N)n2)cc(C(C)=O)c1 [CNI-0294, 2-Amino-4-(3,5-diacetylphenyl)amino-1,6-dimethylpyrimidinium chloride] | did not inhibit | did not significantly inhibit | – | – | – | – | –
CC(=O)c1cc(Nc2cc(C)[n+](C)c(N)n2)cc(C(C)=O)c1.[I-] [Compound No. 2, 2-amino-4-(3,5-diacetylphenyl)amino-1,6-dimethylpyrimidinium iodide] | – | – | ~2 | No anti-viral effect was detected | only a marginal effect | less than 10 | > 90
